Experimental data: patent US20230190707A1, “COMPOSITIONS AND METHODS FOR ENHANCING CANCER IMMUNOTHERAPY” (FRED HUTCHINSON CANCER CENTER, priority 2020, published 2023)

Experiments:
[1] = test system: asymmetric dimethyl arginines (ADMA); assay: ADMA levels by western blot after MS-023; type: cell-based, mouse; settings: MC38 cells, 5 μM for 96 hours
Description: (§1) Unless otherwise specified, cell lines were treated with splicing inhibitors at the indicated concentrations for 96 hours in vitro, harvested and washed three times with PBS in excess to remove all drug, and then used for downstream analyses and/or subsequent studies, including phenotyping, RNA-seq analyses, continued growth in vitro, or tumor challenge in vivo into syngeneic animals.
(§2) Western blotting was performed as per standard techniques. Anti-RBM39 (Atlas Antibodies, Cat. HPA001591 or Bethyl laboratories, Cat. A300-291A) were used to detect RBM39 degradation. ADMA and SDMA levels were determined using antibodies from Cell Signaling Technologies (Cat. 13222S and Cat. 135225). Actin antibody (clone AC-15) was obtained from MilliporeSigma (Cat. A5441-.2ML). Densitometry of RBM39 and actin loading control was performed using ImageJ software in order to calculate RBM39 degradation IC50 values.

[2] = test system: MC38 cells; assay: In vivo tumor challenge with ex vivo MS-023-treated MC38 cells; parameters: species or system mouse; settings: MC38 cells treated 5 μM for 96 hours
Description: as §1
Unless otherwise specified, syngeneic B6 or Balb/c mice were engrafted subcutaneously on bilateral flanks with MC38, B16-F10, CT26 or LLC tumor cells at the following doses: MC38 10^6 cells, B16-F10 0.5×10^6 cells, CT26 0.25×10^6 cells, LLC 0.25×10^6 cells. Tumors were measured serially twice or three times weekly and tumor volumes were estimated by length×width×height. Animals were monitored daily for survival and weighed twice weekly. Experimental endpoints mandating euthanasia were approved by the IACUC and included: animal lethargy, severe kyphosis or evidence of pain, difficulty with ambulation or feeding, tumor ulceration>1 cm or bleeding tumor, evidence of infected tumor, tumor volumes exceeding 2.5 cm^3, or animal total body weight loss>10% from baseline.

[3] = molecular target: T1, RBM39 (Mus musculus, UniProt Q6PFH3+Q8VH51); assay: RBM39 degradation, western blot densitometry; type: cell-based
T1 construct: endogenous in cells; host or cells: B16-F10 (also MC38, CT26, LLC)
Description: as §2

[4] = test system: B16-F10, MC38, and CT26 cells; assay: In vitro growth after ex vivo indisulam treatment and drug washout; type: cell-based, mouse; settings: ex vivo 1 μM for four days followed by drug washout
Description: as §1

[5] = test system: MHC I, MHC II, PD-L1, IFNγ receptors, TNF receptors, DR5; assay: Cell-surface marker expression after drug treatment; type: cell-based, mouse
[6] = test system: lung and colonic tissue, splenic T cells; assay: RNA-seq of non-tumor tissues from indisulam-treated animals; type: in vivo, mouse
Description: Bulk lung and colon were homogenized using a Qiagen TissueRuptor. For all tissues and cell types, RNA was extracted using an RNeasy kit (Qiagen, Frederick, Md.) and quantified using a NanoDrop 8000 (ThermoFisher Scientific). A minimum of 500 ng of high-quality RNA (as determined by Agilent Bioanalyzer) per sample or replicate was used for library preparation. Poly(A)-selected, strand-specific (dUTP method) Illumina libraries were prepared with a modified TruSeq protocol and sequenced on the Illumina HiSeq 2000 (˜100M 2×101 bp paired-end reads per sample or replicate).
RNA-seq analysis was performed as previously described (Dvinge, H., et al. (2014). Sample processing obscures cancer-specific alterations in leukemic transcriptomes. Proc Natl Acad Sci USA 111, 16802-16807, incorporated herein by reference in its entirety). […] Aligned reads from these two mapping steps were merged to generate final BAM files for all subsequent analyses.
MISO v2.0 was used to quantify all expression of isoforms arising from exon skipping (cassette exons), competing 5′ splice site selection, competing 3′ splice site selection, and annotated intron retention. […]

[7] = test system: CD8^+ T cells; assay: Peptide:H-2K^b tetramer staining of tumor-draining lymph nodes; type: in vivo, mouse; settings: B16-F10 tumor-bearing mice, day 14

| Structure (SMILES) | asymmetric dimethyl arginines (ADMA) [1] | tumor growth following engraftment into syngeneic, immune-competent mice [2] | RBM39 protein following drug removal ([3]; ex vivo 1 μM for four days followed by drug washout) | DC50 ([3]; range across B16-F10, MC38, CT26, LLC cells, 24 hours, read-out: IC50 values for RBM39 degradation) | subsequent cell proliferation or apoptosis [4] | cell-surface expression of MHC I, MHC II, PD-L1, or cytokine or death receptors [5] | splicing changes in lung, colonic tissue and splenic T cells [6] | frequencies of CD8^+ T cells recognizing splicing-derived peptides in tumor DLN [7] |
| --- | --- | --- | --- | --- | --- | --- | --- | --- |
| CC(C)Oc1ccc(-c2c[nH]cc2CN(C)CCN)cc1 [MS-023] | globally reduced | durable suppression of tumor growth |  |  |  |  |  |  |
| NS(=O)(=O)c1ccc(S(=O)(=O)Nc2cccc3c(Cl)c[nH]c23)cc1 [indisulam] |  |  | sustained suppression of RBM39 protein | 60 to 1000 nM | minimal effects | did not change | only mild changes in splicing | increased frequencies of CD8^+ T cells |
